From patent US11123340B2, “Small-molecule UT-A-selective urea transport inhibitors” (The Regents of the University of California, priority 2014, dated 2021)

Assays:
rat UT-B = target: T1, rat UT-B (Rattus norvegicus, UniProt P97689); assay: UT-B inhibition, erythrocyte lysis assay; type: cell-based; details: for IC50: rat erythrocytes
T1 construct: endogenous in cells; host or cells: rat erythrocytes (whole rat blood)
T1 sequence (P97689 1-384): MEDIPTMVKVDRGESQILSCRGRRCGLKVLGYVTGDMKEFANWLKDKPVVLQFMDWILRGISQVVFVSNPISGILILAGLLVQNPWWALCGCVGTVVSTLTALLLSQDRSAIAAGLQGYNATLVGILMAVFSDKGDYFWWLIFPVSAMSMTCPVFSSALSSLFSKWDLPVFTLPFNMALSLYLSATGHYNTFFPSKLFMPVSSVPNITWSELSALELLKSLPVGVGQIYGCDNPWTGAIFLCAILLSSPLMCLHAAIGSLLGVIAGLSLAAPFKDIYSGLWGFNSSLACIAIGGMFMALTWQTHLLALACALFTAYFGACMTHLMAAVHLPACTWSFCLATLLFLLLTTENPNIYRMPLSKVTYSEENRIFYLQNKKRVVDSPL
Method: As described (see, e.g., Levin et al. (2007) FASEB J. 21, 551-563), whole rat blood was diluted to a hematocrit of ˜1.5% in PBS containing 1.25 M acetamide and 5 mM glucose. Erythrocyte suspensions (100 μL) were added to 96-well round-bottom microplates and test compounds (1 μL) were added. After 15 min incubation, 20 μL of the erythrocyte suspension was added rapidly to each well containing 180 μL of PBS. Following vigorous mixing, erythrocyte lysis was quantified by absorbance at 710 nm. Non-lysed controls (isosmolar buffer) and lysed controls (0.7 mM phloretin) were added in each plate as negative and positive controls, respectively. Percentage erythrocyte lysis was computed as: % lysis=100% (Aneg−Atest)/(Aneg−Apos), where A is absorbance at 710 nm.
Inhibitor selectivity for rat UT-A1 versus UT-B was investigated using an erythrocyte lysis assay of rat UT-B urea transport, which involved measurement of hypotonic lysis (by near-infrared absorbance) of acetamide-loaded erythrocytes following rapid dilution into acetamide-free buffer.

rat UT-A1 = target: T2, rat UT-A1 (Rattus norvegicus, UniProt Q62668); assay: UT-A1 inhibition, fluorescence plate reader assay in MDCK cells expressing UT-A1, AQP1 and YFP-H148Q/V163S; type: cell-based
T2 construct: expressed in transfected cells; host or cells: MDCK cells stably co-expressing rat UT-A1, human AQP1 and YFP-H148Q/V163S
T2 sequence (Q62668 1-929): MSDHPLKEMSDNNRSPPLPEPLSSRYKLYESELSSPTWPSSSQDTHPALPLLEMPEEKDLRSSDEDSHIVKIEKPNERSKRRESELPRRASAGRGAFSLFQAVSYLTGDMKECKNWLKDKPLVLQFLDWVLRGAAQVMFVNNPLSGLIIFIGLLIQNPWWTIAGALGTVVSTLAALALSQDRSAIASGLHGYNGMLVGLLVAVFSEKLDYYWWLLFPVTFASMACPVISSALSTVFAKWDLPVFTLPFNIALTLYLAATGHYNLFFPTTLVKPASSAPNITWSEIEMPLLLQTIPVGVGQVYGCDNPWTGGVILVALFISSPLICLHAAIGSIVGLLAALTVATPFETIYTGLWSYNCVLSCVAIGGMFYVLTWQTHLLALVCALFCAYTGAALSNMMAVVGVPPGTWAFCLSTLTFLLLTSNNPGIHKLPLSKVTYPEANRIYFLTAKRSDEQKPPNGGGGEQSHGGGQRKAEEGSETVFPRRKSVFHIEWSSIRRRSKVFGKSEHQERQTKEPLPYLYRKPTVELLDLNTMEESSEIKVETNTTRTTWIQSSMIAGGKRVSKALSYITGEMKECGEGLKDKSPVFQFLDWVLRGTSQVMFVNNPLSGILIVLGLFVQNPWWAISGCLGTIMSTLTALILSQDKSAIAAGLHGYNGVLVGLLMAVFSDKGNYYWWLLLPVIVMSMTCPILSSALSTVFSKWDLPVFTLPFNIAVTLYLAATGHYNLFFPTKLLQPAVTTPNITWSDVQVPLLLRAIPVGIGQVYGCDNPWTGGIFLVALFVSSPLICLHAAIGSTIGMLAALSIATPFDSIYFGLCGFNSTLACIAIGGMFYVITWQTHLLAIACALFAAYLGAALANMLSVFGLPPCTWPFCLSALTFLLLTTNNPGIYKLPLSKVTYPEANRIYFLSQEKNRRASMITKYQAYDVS
Method: Primary screening was done using a collection of 50,000 chemically diverse, drug-like compounds from ChemDiv (San Diego, Calif.). For analysis of structure-activity relationships, >300 commercially available analogs (ChemDiv and Asinex, Winston-Salem, N.C.) were tested. Cells were plated on black 96-well Costar microplates with clear plastic bottoms (Corning, Corning, N.Y.) at 15,000 cells/well and cultured for 24 h at 37° C. before assay. Microplates containing cultured cells were washed twice with PBS and 150 μL of test compound (25 μM final) in PBS was added. Eighty wells contained test compounds, and the first and last columns of each plate contained negative (dimethyl sulfoxide, DMSO) and positive (0.35 mM phloretin) controls. The assays were done on a plate reader (Tecan Trading AG, Switzerland) equipped with a custom YFP filter set. Each assay consisted of a continuous 15-s read (5 Hz) in which 50 μL of 3.2 M urea in PBS was injected at 1 s (at 130 μL/s) to give a 800 mM final urea gradient.
MDCK cells stably expressing rat UT-A1 (see, e.g., Frohlich et al. (2006) Am J Physiol Cell Physiol. 291, C600-D606), YFP-H148Q/V163 S (see, e.g., Galietta, et al. (2001) FEBS Lett. 499, 220-224) and human AQP1, as described previously (see, e.g., Esteva-Font et al. (2013) Chem Biol. 20, 1235-1244), were grown in Dulbecco's modified Eagle medium (DMEM) containing 10% fetal bovine serum (FBS), penicillin G (100 U/mL), streptomycin (100 μg/mL), zeocin (500 μg/mL), geneticin (600 μg/mL) and Hygromycin (500 μg/mL) at 37° C., 5% CO2. A Cell Clone with bright YFP fluorescence and relatively low AQP1 expression was used for the screen to maximize dynamic range.
In order to identify UT-A inhibitors suitable for testing in rats, a collection of 50,000 synthetic small molecules was screened. As diagrammed in FIG. 1A (top), the fluorescence cell-based screen utilized MDCK cells stably rat expressing UT-A1, water channel AQP1 and the cytoplasmic chloride-sensing fluorescent protein YFP-H148Q/V163S. As described and validated previously (see, e.g., Esteva-Font et al. (2013) Chem Biol. 20, 1235-1244), extracellular addition of urea results in osmotic water efflux and cell shrinking, which increases intracellular chloride concentration and reduces YFP fluorescence. Urea entry results in increasing YFP fluorescence as cells re-swell. Inhibitors of UT-A1 urea transport produce a lesser reduction in fluorescence and slowed recovery.

UT = details: literature; cited from earlier work

CC(=O)Nc1ccc(-c2csc(-c3ccccc3)n2)cc1 [UTA1inh-E01]
selectivity for UT-A1 versus UT-B (rat UT-B; rat UT-A1 versus rat UT-B): high selectivity
IC50 (rat UT-A1): 3 µM

CC(=O)Nc1ccc(-c2csc(C)n2)cc1 [UTA1inh-E03]
IC50 (rat UT-B): > 50 µM
IC50 (rat UT-A1): > 50 µM

COc1ccc(C)cc1S(=O)(=O)Nc1cccc(N2CCCS2(=O)=O)c1 [UTA1inh-F01]
IC50 (rat UT-B): 6 µM
IC50 (rat UT-A1): 1 µM

Cc1ccc(C)c(S(=O)(=O)Nc2cccc(N3CCCS3(=O)=O)c2)c1 [UTA1inh-F02]
IC50 (rat UT-B): > 75 µM
IC50 (rat UT-A1): 15 µM

Cc1cc(C)c(S(=O)(=O)Nc2cccc(N3CCCS3(=O)=O)c2)cc1C [UTA1inh-F03]
IC50 (rat UT-B): 15 µM
IC50 (rat UT-A1): 3 µM

COc1ccc(F)cc1S(=O)(=O)Nc1cccc(N2CCCS2(=O)=O)c1 [UTA1inh-F04]
IC50 (rat UT-B): > 75 µM
IC50 (rat UT-A1): 5 µM

COc1cc(C)c(C)cc1S(=O)(=O)Nc1cccc(N2CCCS2(=O)=O)c1 [UTA1inh-F05]
IC50 (rat UT-B): 20 µM
IC50 (rat UT-A1): 3 µM

Cc1ccc(C)c(S(=O)(=O)Nc2cc(N3CCCS3(=O)=O)ccc2C)c1 [UTA1inh-F06]
IC50 (rat UT-B): > 75 µM
IC50 (rat UT-A1): 10 µM

COc1ccc(F)cc1S(=O)(=O)Nc1cc(N2CCCS2(=O)=O)ccc1C [UTA1inh-F07]
IC50 (rat UT-B): > 75 µM
IC50 (rat UT-A1): 15 µM

COc1cc(C)c(C)cc1S(=O)(=O)Nc1cc(N2CCCS2(=O)=O)ccc1C [UTA1inh-F08]
IC50 (rat UT-B): 20 µM
IC50 (rat UT-A1): 30 µM

COc1ccc(N2CCCS2(=O)=O)cc1NS(=O)(=O)c1cc(C)ccc1OC [UTA1inh-F09]
IC50 (rat UT-B): 8 µM
IC50 (rat UT-A1): 1 µM

COc1ccc(N2CCCS2(=O)=O)cc1NS(=O)(=O)c1cc(C)ccc1C [UTA1inh-F10]
IC50 (rat UT-B): > 75 µM
IC50 (rat UT-A1): 5 µM

COc1ccc(OC)c(S(=O)(=O)Nc2ccc(Cl)c(N3CCCS3(=O)=O)c2)c1 [UTA1inh-F12]
IC50 (rat UT-A1): 5 µM

COc1cc(C)c(C)cc1S(=O)(=O)Nc1ccc(Cl)c(N2CCCS2(=O)=O)c1 [UTA1inh-F13]
IC50 (rat UT-A1): 8 µM

O=C(CCc1ccc(O)cc1)c1c(O)cc(O)cc1O [phloretin]
concentration exhibiting activity (UT): > 0.5 mM
